Columns and labels:
Format in all cases: cell-based
[1] = Compound cytotoxicity, XTT-based colorimetric assay; settings: human; uninfected MT2 cells, day 4, XTT
Protocol: (§1) Compound cytotoxicity and the corresponding CC50 values were determined using the same protocol as described in the antiviral assay except that uninfected cells were used. Cytotoxicity was assessed on day 4 in uninfected MT2 cells by using a XTT (2,3-bis[2-Methoxy-4-nitro-5-sulfophenyl]-2H-tetrazolium-5-carboxyanilide inner salt)-based colorimetric assay (Sigma-Aldrich, St Louis, Mo.).

[2] = test system: recombinant NL4-3 virus (Renilla luciferase) in MT-2 cells; experiment: HIV cell culture assay (antiviral activity, luciferase readout)
Protocol: HIV cell culture assay—MT-2 cells, 293T cells and the proviral DNA clone of NL4-3 virus were obtained from the NIH AIDS Research and Reference Reagent Program. MT-2 cells were propagated in RPMI 1640 media supplemented with 10% heat inactivated fetal bovine serum (FBS), 100 μg/ml penicillin G and up to 100 units/mL streptomycin. The 293T cells were propagated in DMEM media supplemented with 10% heat inactivated FBS, 100 μg/mL penicillin G and 100 μg/mL streptomycin. A recombinant NL4-3 proviral clone, in which a section of the nef gene was replaced with the Renilla luciferase gene, was used to make the reference virus used in these studies. The recombinant virus was prepared through transfection of the recombinant NL4-3 proviral clone into 293T cells using Transit-293 Transfection Reagent from Mirus Bio LLC (Madison, Wis.). Supernatant was harvested after 2-3 days and the amount of virus present was titered in MT-2 cells using luciferase enzyme activity as a marker by measuring luciferase enzyme activity. Luciferase was quantitated using the EnduRen Live Cell Substrate from Promega (Madison, Wis.). Antiviral activities of compounds toward the recombinant virus were quantified by measuring luciferase activity in MT-2 cells infected for 4-5 days with the recombinant virus in the presence of serial dilutions of the compound.
The 50% effective concentration (EC50) was calculated by using the exponential form of the median effect equation where (Fa)=1/[1+(ED50/drug conc.)^m] (Johnson V A, Byington R T. Infectivity Assay. In Techniques in HIV Research. ed. Aldovini A, Walker B D. 71-76. New York: Stockton Press. 1990).

uninfected MT2 cells = experiment: Compound cytotoxicity, XTT-based colorimetric assay; settings: day 4, XTT
Protocol: as §1

[3] = MT-2 cells infected for 4-5 days with recombinant NL4-3 Renilla luciferase virus
[4] = Renilla, NL43, MT-2 cells infected for 4-5 days with recombinant NL4-3 Renilla luciferase virus

| SMILES | CC50 at 4 days [1] | EC50 [2, 3] | CC50 (uninfected MT2 cells) | EC50 [2, 4] |
| --- | --- | --- | --- | --- |
| Cn1nc(NS(C)(=O)=O)c2c(Cl)ccc(-n3c([C@H](Cc4cc(F)cc(F)c4)NC(=O)Cn4nc(C(F)F)c5c4C(F)(F)[C@@H]4C[C@H]54)nccc3=O)c21 (mixture of isomers) [Example 1, N—((S)-1-(1-(4-chloro-1-methyl-3-(methylsulfonamido)-1H-indazol-7-yl)-6-oxo-1,6-dihydropyrimidin-2-yl)-2-(3,5-difluorophenyl)ethyl)-2-((3bS,4aR)-3-(difluoromethyl)-5,5-difluoro-3b,4,4a,5-tetrahydro-1H-cyclopropa[3,4]cyclopenta[1,2-c]pyrazol-1-yl)acetamide] | > 1000 nM | 32.7 nM | – | – |
| Cn1nc(NS(C)(=O)=O)c2c(Cl)ccc(-n3c([C@H](Cc4cc(F)cc(F)c4)NC(=O)Cn4nc(C(F)F)c5c4C(F)(F)[C@@H]4C[C@H]54)nccc3=O)c21 (mixture of isomers) [Example 2, N—((S)-1-(1-(4-chloro-1-methyl-3-(methylsulfonamido)-1H-indazol-7-yl)-6-oxo-1,6-dihydropyrimidin-2-yl)-2-(3,5-difluorophenyl)ethyl)-2-((3bS,4aR)-3-(difluoromethyl)-5,5-difluoro-3b,4,4a,5-tetrahydro-1H-cyclopropa[3,4]cyclopenta[1,2-c]pyrazol-1-yl)acetamide] | – | 0.118 nM | > 1000 nM | – |
| Cn1nc(NS(C)(=O)=O)c2c(Cl)ccc(-n3c([C@@H](Cc4cc(F)cc(F)c4)NC(=O)Cn4nc(C(F)F)c5c4C(F)(F)[C@@H]4C[C@H]54)nccc3=O)c21 [Example 3, N—((R)-1-((1M)-1-(4-chloro-1-methyl-3-(methylsulfonamido)-1H-indazol-7-yl)-6-oxo-1,6-dihydropyrimidin-2-yl)-2-(3,5-difluorophenyl)ethyl)-2-((3bS,4aR)-3-(difluoromethyl)-5,5-difluoro-3b,4,4a,5-tetrahydro-1H-cyclopropa[3,4]cyclopenta[1,2-c]pyrazol-1-yl)acetamide] | > 1000 nM | – | – | 12.7 nM |
| Cn1nc(NS(C)(=O)=O)c2c(Cl)ccc(-n3c([C@H](Cc4cc(F)cc(F)c4)NC(=O)Cn4nc(C(F)F)c5c4C(F)(F)[C@@H]4C[C@H]54)nccc3=O)c21 [Example 4] | – | – | > 1000 nM | 0.554 nM |
| Cn1nc(NS(C)(=O)=O)c2c(Cl)ccc(-n3c([C@@H](Cc4cc(F)cc(F)c4)NC(=O)Cn4nc(C(F)(F)F)c5c4C(F)(F)[C@@H]4C[C@H]54)nccc3=O)c21 [Example 5, N—((R)-1-((1M)-1-(4-chloro-1-methyl-3-(methylsulfonamido)-1H-indazol-7-yl)-6-oxo-1,6-dihydropyrimidin-2-yl)-2-(3,5-difluorophenyl)ethyl)-2-((3bS,4aR)-5,5-difluoro-3-(trifluoromethyl)-3b,4,4a,5-tetrahydro-1H-cyclopropa[3,4]cyclopenta[1,2-c]pyrazol-1-yl)acetamide] | > 1000 nM | – | – | 70 nM |
| Cn1nc(NS(C)(=O)=O)c2c(Cl)ccc(-n3c([C@H](Cc4cc(F)cc(F)c4)NC(=O)Cn4nc(C(F)(F)F)c5c4C(F)(F)[C@@H]4C[C@H]54)nccc3=O)c21 [Example 6, N—((S)-1-((1P)-1-(4-chloro-1-methyl-3-(methylsulfonamido)-1H-indazol-7-yl)-6-oxo-1,6-dihydropyrimidin-2-yl)-2-(3,5-difluorophenyl)ethyl)-2-((3bS,4aR)-5,5-difluoro-3-(trifluoromethyl)-3b,4,4a,5-tetrahydro-1H-cyclopropa[3,4]cyclopenta[1,2-c]pyrazol-1-yl)acetamide] | > 1000 nM | – | – | 0.493 nM |
